Measured values taken from patent US5840684A, “Glycopeptide antibiotic derivatives” (Eli Lilly and Company, priority 1995, dated 1998).
Values after ≈ are worked out from the molar mass of the structure shown.

Experiments:
[1] = tested on: Staphylococcus aureus 491; test: broth micro-dilution MIC; format: cell-based
Protocol: (§1) The MIC's were determined using a standard broth micro-dilution assay.

[2] = tested on: Entercoccus faecium 180-1; test: broth micro-dilution MIC; format: cell-based
Protocol: as §1

[3] = tested on: Staphylococcus aureus 489; test: broth micro-dilution MIC; format: cell-based
Protocol: as §1

[4] = tested on: Staphylococcus aureus 447; test: broth micro-dilution MIC; format: cell-based
Protocol: as §1

[5] = tested on: Streptococcus pyogenes C203; test: broth micro-dilution MIC; format: cell-based
Protocol: as §1

[6] = tested on: Staphylococcus aureus SA1199; test: broth micro-dilution MIC; format: cell-based
Protocol: as §1

[7] = tested on: Staphylococcus aureus X400; test: broth micro-dilution MIC; format: cell-based
Protocol: as §1

[8] = tested on: Staphylococcus aureus X778; test: broth micro-dilution MIC; format: cell-based
Protocol: as §1

[9] = tested on: Staphylococcus aureus 446; test: broth micro-dilution MIC; format: cell-based
Protocol: as §1

Entercoccus faecium 276 = test: broth micro-dilution MIC; format: cell-based
Protocol: as §1

[10] = tested on: Staphylococcus aureus SA1199A; test: broth micro-dilution MIC; format: cell-based
Protocol: as §1

[11] = tested on: Staphylococcus aureus S13E; format: cell-based
Protocol: as §1

[12] = tested on: Staphylococcus aureus SA1199B; format: cell-based
Protocol: as §1

[13] = tested on: Staphylococcus haemolyticus 105; test: broth micro-dilution MIC; format: cell-based
Protocol: (§2) The formula I compounds have in vitro and in vivo activity against Gram-positive pathogenic bacteria. The MIC's were determined using a standard broth micro-dilution assay.

Entercoccus faecium 2041 = test: broth micro-dilution MIC; format: cell-based; details: Entercoccus faecium 2041
Protocol: as §2

[14] = tested on: Enterococcus gallinarum 245; test: broth micro-dilution MIC; format: cell-based; details: Enterococcus gallinarum 245
Protocol: as §2

Entercoccus faecium 180 = test: broth micro-dilution MIC; format: cell-based; details: Entercoccus faecium 180
Protocol: as §2

[15] = tested on: Staphylococcus epidermidis 270; test: broth micro-dilution MIC; format: cell-based
Protocol: as §2

[16] = tested on: Streptococcus pneumoniae P1; test: broth micro-dilution MIC; format: cell-based
Protocol: as §2

[17] = tested on: Staphylococcus haemolyticus 415; test: broth micro-dilution MIC; format: cell-based
Protocol: as §2

[18] = tested on: vancomycin-resistant enterococci; test: broth micro-dilution, mean geometric MIC; format: cell-based, Enterococcus faecium and Enterococcus faecalis; details: enterococci, 24-hour incubation
[19] = tested on: vancomycin-susceptible enterococci; test: broth micro-dilution, mean geometric MIC; format: cell-based, Enterococcus faecium and Enterococcus faecalis; details: enterococci, 24-hour incubation

Row | Compound | MIC [1] [µg/mL] | MIC [2] [µg/mL] | MIC [3] [µg/mL] | MIC [4] [µg/mL] | MIC [5] [µg/mL] | MIC [6] [µg/mL] | MIC [7] [µg/mL] | MIC [8] [µg/mL] | MIC [9] [µg/mL] | MIC (Entercoccus faecium 276) [µg/mL] | MIC [10] [µg/mL] | MIC [11] [µg/mL] | MIC [12] [µg/mL] | MIC [13] [µg/mL] | MIC (Entercoccus faecium 2041) [µg/mL] | MIC [14] [µg/mL] | MIC (Entercoccus faecium 180) [µg/mL] | MIC [15] [µg/mL] | MIC [16] [µg/mL] | MIC [17] [µg/mL] | other results
1 | CNC(CC(C)C)C(=O)NC1C(=O)NC(CC(N)=O)C(=O)NC2C(=O)NC3C(=O)NC(C(=O)NC(C(=O)O)c4cc(O)cc(O)c4-c4cc3ccc4O)C(OC3CC(C)(N)C(O)C(C)O3)c3ccc(c(Cl)c3)Oc3cc2cc(c3OC2OC(CO)C(O)C(O)C2OC2CC(C)(NCc3ccc(S(=O)(=O)N4CCCC4)cc3)C(O)C(C)O2)Oc2ccc(cc2Cl)C1O (stereo not drawn) [Compound 174] | 1 (≈ 0.551 µM) | ≤ 0.06 | ≤ 0.06 | 4 (≈ 2.2 µM) | ≤ 0.06 | ≤ 0.06 | ≤ 0.06 | ≤ 0.06 | 0.5 (≈ 0.275 µM) | ≤ 0.06 | ≤ 0.06 | ≤ 0.06 | 0.125 (≈ 0.0688 µM) | 4 (≈ 2.2 µM) | ≤ 0.06 | 16 (≈ 8.81 µM) | 2 (≈ 1.1 µM) | 2 (≈ 1.1 µM) | ≤ 0.06 | 16 (≈ 8.81 µM) | mean geometric MIC, Vancomycin Resistant Strains [18]: 19 µg/mL; mean geometric MIC, Vancomycin Sensitive Strains [19]: 0.76 µg/mL
2 | CCCCCCCCCCC#CCNC1(C)CC(OC2C(Oc3c4cc5cc3Oc3ccc(cc3Cl)C(OC3CC(C)(N)C(O)C(C)O3)C3NC(=O)C(NC(=O)C5NC(=O)C(CC(N)=O)NC(=O)C(NC(=O)C(CC(C)C)NC)C(O)c5ccc(c(Cl)c5)O4)c4ccc(O)c(c4)-c4c(O)cc(O)cc4C(C(=O)O)NC3=O)OC(CO)C(O)C2O)OC(C)C1O (stereo not drawn) [Compound 191] | 1 (≈ 0.565 µM) | 0.25 (≈ 0.141 µM) | 2 (≈ 1.13 µM) | 2 (≈ 1.13 µM) | ≤ 0.06 | 2 (≈ 1.13 µM) | 1 (≈ 0.565 µM) | 2 (≈ 1.13 µM) | 2 (≈ 1.13 µM) | 4 (≈ 2.26 µM) | 0.5 (≈ 0.282 µM) | 2 (≈ 1.13 µM) | 2 (≈ 1.13 µM) | 2 (≈ 1.13 µM) | 1 (≈ 0.565 µM) | 8 (≈ 4.52 µM) | 4 (≈ 2.26 µM) | 2 (≈ 1.13 µM) | ≤ 0.06 | 8 (≈ 4.52 µM) | mean geometric MIC, Vancomycin Resistant Strains [18]: 6.7 µg/mL; mean geometric MIC, Vancomycin Sensitive Strains [19]: 0.57 µg/mL
3 | CNC(CC(C)C)C(=O)NC1C(=O)NC(CC(N)=O)C(=O)NC2C(=O)NC3C(=O)NC(C(=O)NC(C(=O)O)c4cc(O)cc(O)c4-c4cc3ccc4O)C(OC3CC(C)(N)C(O)C(C)O3)c3ccc(c(Cl)c3)Oc3cc2cc(c3OC2OC(CO)C(O)C(O)C2OC2CC(C)(NCc3ccc(N=Nc4ccccc4)cc3)C(O)C(C)O2)Oc2ccc(cc2Cl)C1O (stereo not drawn) [Compound 210] | ≤ 0.06 | ≤ 0.06 | 1 (≈ 0.56 µM) | 0.5 (≈ 0.28 µM) | ≤ 0.06 | 0.5 (≈ 0.28 µM) | ≤ 0.06 | 1 (≈ 0.56 µM) | 2 (≈ 1.12 µM) | ≤ 0.06 | ≤ 0.06 | ≤ 0.06 | 0.125 (≈ 0.07 µM) | 1 (≈ 0.56 µM) | ≤ 0.06 | 1 (≈ 0.56 µM) | ≤ 0.06 | 0.25 (≈ 0.14 µM) | ≤ 0.06 | 1 (≈ 0.56 µM) | mean geometric MIC, Vancomycin Resistant Strains [18]: 0.84 µg/mL; mean geometric MIC, Vancomycin Sensitive Strains [19]: 0.041 µg/mL
4 | CNC(CC(C)C)C(=O)NC1C(=O)NC(CC(N)=O)C(=O)NC2C(=O)NC3C(=O)NC(C(=O)NC(C(=O)O)c4cc(O)cc(O)c4-c4cc3ccc4O)C(OC3CC(C)(N)C(O)C(C)O3)c3ccc(c(Cl)c3)Oc3cc2cc(c3OC2OC(CO)C(O)C(O)C2OC2CC(C)(NCc3ccc4c(c3)CCc3ccccc3-4)C(O)C(C)O2)Oc2ccc(cc2Cl)C1O (stereo not drawn) [Compound 220] | ≤ 0.06 | ≤ 0.06 | 0.5 (≈ 0.28 µM) | 0.5 (≈ 0.28 µM) | ≤ 0.06 | 1 (≈ 0.56 µM) | 0.5 (≈ 0.28 µM) | 0.5 (≈ 0.28 µM) | 1 (≈ 0.56 µM) | 0.125 (≈ 0.07 µM) | ≤ 0.06 | 0.5 (≈ 0.28 µM) | 0.5 (≈ 0.28 µM) | 0.5 (≈ 0.28 µM) | ≤ 0.06 | 0.5 (≈ 0.28 µM) | 0.125 (≈ 0.07 µM) | 1 (≈ 0.56 µM) | ≤ 0.06 | 0.5 (≈ 0.28 µM) | mean geometric MIC, Vancomycin Resistant Strains [18]: 0.71 µg/mL; mean geometric MIC, Vancomycin Sensitive Strains [19]: 0.05 µg/mL
5 | CCCCCC#Cc1ccc(CNC2(C)CC(OC3C(Oc4c5cc6cc4Oc4ccc(cc4Cl)C(OC4CC(C)(N)C(O)C(C)O4)C4NC(=O)C(NC(=O)C6NC(=O)C(CC(N)=O)NC(=O)C(NC(=O)C(CC(C)C)NC)C(O)c6ccc(c(Cl)c6)O5)c5ccc(O)c(c5)-c5c(O)cc(O)cc5C(C(=O)O)NC4=O)OC(CO)C(O)C3O)OC(C)C2O)cc1 (stereo not drawn) [Compound 227] | 2 (≈ 1.13 µM) | ≤ 0.06 | 2 (≈ 1.13 µM) | 2 (≈ 1.13 µM) | ≤ 0.06 | 4 (≈ 2.25 µM) | 1 (≈ 0.563 µM) | 4 (≈ 2.25 µM) | 2 (≈ 1.13 µM) | 0.5 (≈ 0.281 µM) | 0.6 (≈ 0.338 µM) | 4 (≈ 2.25 µM) | 4 (≈ 2.25 µM) | 2 (≈ 1.13 µM) | 0.25 (≈ 0.141 µM) | 4 (≈ 2.25 µM) | 0.25 (≈ 0.141 µM) | 2 (≈ 1.13 µM) | ≤ 0.06 | 4 (≈ 2.25 µM) | mean geometric MIC, Vancomycin Resistant Strains [18]: 0.71 µg/mL; mean geometric MIC, Vancomycin Sensitive Strains [19]: 0.11 µg/mL
6 | CNC(CC(C)C)C(=O)NC1C(=O)NC(CC(N)=O)C(=O)NC2C(=O)NC3C(=O)NC(C(=O)NC(C(=O)O)c4cc(O)cc(O)c4-c4cc3ccc4O)C(OC3CC(C)(N)C(O)C(C)O3)c3ccc(c(Cl)c3)Oc3cc2cc(c3OC2OC(CO)C(O)C(O)C2OC2CC(C)(NCc3cccc(Sc4ccc(C(C)(C)C)cc4)c3)C(O)C(C)O2)Oc2ccc(cc2Cl)C1O (stereo not drawn) [Compound 228] | 1 (≈ 0.541 µM) | ≤ 0.06 | 2 (≈ 1.08 µM) | 4 (≈ 2.17 µM) | 0.125 (≈ 0.0677 µM) | 4 (≈ 2.17 µM) | 1 (≈ 0.541 µM) | 4 (≈ 2.17 µM) | 4 (≈ 2.17 µM) | 1 (≈ 0.541 µM) | ≤ 0.06 | 8 (≈ 4.33 µM) | 4 (≈ 2.17 µM) | 2 (≈ 1.08 µM) | 0.25 (≈ 0.135 µM) | 4 (≈ 2.17 µM) | 1 (≈ 0.541 µM) | 2 (≈ 1.08 µM) | ≤ 0.06 | 4 (≈ 2.17 µM) | mean geometric MIC, Vancomycin Resistant Strains [18]: 1.0 µg/mL; mean geometric MIC, Vancomycin Sensitive Strains [19]: 0.14 µg/mL
